The results in this text go back to ChEMBL document CHEMBL5291721, “A preclinical secondary pharmacology resource illuminates target-adverse drug reaction associations of marketed drugs” (Nat Commun, 2023).

Usually AC50 stands for the concentration giving half of the maximal activity seen. Read a low AC50 as greater potency.

Some results are limits rather than exact numbers.

For one assay, the target named is T1, Progesterone receptor (Homo sapiens, UniProt P06401).
T1 sequence (P06401 whole entry): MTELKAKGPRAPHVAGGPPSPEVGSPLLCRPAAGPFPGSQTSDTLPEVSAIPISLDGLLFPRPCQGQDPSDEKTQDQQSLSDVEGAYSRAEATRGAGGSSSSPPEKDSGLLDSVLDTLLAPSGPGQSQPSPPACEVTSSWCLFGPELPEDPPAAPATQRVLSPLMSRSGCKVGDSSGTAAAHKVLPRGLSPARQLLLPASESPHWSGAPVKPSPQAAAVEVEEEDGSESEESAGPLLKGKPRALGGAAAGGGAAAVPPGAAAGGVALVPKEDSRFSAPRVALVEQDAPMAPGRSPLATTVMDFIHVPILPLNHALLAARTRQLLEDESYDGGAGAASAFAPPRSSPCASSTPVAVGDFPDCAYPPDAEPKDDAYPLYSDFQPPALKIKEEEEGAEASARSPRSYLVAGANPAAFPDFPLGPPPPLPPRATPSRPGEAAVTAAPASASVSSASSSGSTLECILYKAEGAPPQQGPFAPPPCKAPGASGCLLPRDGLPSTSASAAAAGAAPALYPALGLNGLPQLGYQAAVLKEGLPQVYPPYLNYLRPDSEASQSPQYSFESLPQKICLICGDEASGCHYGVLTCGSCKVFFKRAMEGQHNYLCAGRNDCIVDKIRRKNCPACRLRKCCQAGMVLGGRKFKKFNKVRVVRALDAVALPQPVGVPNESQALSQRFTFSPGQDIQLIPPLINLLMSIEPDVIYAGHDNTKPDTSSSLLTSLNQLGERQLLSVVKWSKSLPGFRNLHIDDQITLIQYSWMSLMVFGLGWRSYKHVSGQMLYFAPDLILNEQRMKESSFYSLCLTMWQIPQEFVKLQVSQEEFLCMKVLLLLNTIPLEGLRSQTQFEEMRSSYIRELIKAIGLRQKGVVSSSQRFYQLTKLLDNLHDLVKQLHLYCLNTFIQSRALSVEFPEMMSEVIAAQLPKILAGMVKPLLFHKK

The target of assay [1] is T2, Alpha-1A adrenergic receptor (Homo sapiens, UniProt P35348).
T2 sequence (P35348 whole entry): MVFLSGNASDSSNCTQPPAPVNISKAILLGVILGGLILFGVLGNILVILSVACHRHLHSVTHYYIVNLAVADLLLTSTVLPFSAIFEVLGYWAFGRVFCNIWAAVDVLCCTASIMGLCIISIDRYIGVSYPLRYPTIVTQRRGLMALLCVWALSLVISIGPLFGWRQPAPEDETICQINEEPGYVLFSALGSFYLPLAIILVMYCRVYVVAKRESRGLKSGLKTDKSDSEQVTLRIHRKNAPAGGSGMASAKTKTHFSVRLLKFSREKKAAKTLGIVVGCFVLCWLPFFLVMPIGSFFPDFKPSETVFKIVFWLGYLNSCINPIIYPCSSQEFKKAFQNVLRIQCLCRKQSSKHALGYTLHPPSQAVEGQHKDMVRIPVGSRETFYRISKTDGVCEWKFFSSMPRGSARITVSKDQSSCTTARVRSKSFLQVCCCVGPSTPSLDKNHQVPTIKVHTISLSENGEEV
The format is functional, cell-based.

Assay [2] addresses Prostaglandin G/H synthase 1 (Homo sapiens, UniProt P23219). The class given is functional.
The target in assay [3] is T2, Alpha-1A adrenergic receptor. The class given is functional, cell-based. This is another data set of the same source.
The target in assay [4] is Gamma-aminobutyric acid receptor subunit alpha-1 (Rattus norvegicus, UniProt P62813).
Sequence of Gamma-aminobutyric acid receptor subunit alpha-1 (P62813 whole entry): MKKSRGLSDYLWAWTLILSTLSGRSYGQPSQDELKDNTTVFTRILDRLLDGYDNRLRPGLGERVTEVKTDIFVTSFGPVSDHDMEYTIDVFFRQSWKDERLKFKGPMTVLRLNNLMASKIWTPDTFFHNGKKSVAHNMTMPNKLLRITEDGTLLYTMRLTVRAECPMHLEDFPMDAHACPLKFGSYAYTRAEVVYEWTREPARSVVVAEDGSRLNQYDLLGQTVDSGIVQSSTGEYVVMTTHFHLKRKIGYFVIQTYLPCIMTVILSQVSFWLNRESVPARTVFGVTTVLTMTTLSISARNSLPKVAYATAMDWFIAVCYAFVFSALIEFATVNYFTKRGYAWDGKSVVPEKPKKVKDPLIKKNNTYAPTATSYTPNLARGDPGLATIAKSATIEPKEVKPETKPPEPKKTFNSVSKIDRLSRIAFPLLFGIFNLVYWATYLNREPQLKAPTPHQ
Assay [5] has as its target T3, Type-1 angiotensin II receptor (Homo sapiens, UniProt P30556).
T3 sequence (P30556 whole entry): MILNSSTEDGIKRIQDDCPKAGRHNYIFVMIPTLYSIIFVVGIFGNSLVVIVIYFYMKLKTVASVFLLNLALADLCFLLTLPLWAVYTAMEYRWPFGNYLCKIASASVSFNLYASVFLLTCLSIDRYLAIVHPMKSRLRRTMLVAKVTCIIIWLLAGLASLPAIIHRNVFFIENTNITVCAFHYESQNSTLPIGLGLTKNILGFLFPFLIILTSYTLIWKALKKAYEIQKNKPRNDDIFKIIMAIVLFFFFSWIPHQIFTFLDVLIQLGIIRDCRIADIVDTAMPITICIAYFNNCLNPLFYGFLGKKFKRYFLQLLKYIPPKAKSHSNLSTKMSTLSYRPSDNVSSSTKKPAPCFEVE

Assay [6] addresses 3',5'-cyclic-AMP phosphodiesterase 4D (Homo sapiens, UniProt Q08499). The class given is functional.
The target in assay [7] is T4, Prostaglandin G/H synthase 1 (Rattus norvegicus, UniProt Q63921).
T4 sequence (Q63921 whole entry): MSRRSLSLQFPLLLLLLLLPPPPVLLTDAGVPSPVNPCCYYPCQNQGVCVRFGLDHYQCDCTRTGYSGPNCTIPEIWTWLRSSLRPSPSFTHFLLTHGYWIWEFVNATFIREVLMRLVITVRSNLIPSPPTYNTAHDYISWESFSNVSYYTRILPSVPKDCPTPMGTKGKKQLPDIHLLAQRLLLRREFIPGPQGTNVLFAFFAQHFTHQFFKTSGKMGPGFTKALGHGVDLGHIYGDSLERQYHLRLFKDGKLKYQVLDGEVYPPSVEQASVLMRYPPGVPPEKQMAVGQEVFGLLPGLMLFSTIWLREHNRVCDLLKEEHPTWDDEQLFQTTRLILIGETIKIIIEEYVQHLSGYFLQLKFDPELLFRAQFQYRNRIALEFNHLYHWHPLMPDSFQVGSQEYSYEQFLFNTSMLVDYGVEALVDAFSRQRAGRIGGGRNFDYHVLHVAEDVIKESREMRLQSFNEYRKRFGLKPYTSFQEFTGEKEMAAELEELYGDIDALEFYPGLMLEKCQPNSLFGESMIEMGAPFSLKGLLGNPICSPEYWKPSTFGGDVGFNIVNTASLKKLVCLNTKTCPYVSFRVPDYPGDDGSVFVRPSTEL
The format is functional.
Also: assay procedure not described here.

Sequence of 3',5'-cyclic-AMP phosphodiesterase 4D (Q08499 whole entry): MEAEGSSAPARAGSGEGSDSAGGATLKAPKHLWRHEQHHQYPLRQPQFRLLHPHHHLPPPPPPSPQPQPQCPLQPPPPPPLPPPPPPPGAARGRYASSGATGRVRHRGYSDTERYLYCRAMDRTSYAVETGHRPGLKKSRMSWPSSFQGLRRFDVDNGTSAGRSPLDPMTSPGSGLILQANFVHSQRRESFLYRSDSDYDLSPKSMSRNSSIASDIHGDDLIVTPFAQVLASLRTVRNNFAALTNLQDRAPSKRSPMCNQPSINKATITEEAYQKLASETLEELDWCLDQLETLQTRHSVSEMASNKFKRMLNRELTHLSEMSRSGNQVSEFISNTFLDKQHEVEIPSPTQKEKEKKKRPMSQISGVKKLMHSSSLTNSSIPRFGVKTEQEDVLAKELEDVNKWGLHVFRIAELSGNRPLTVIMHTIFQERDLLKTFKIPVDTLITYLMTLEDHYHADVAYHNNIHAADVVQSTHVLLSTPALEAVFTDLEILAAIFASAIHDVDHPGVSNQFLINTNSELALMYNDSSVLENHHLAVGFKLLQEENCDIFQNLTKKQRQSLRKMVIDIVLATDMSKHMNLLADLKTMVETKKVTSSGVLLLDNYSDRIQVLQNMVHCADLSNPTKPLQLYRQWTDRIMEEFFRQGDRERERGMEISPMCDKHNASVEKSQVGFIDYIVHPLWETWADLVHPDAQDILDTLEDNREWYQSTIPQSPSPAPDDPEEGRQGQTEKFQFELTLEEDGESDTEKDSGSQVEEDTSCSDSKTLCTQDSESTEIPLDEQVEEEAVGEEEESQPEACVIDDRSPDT
Sequence of Prostaglandin G/H synthase 1 (Homo sapiens, UniProt P23219) (P23219 whole entry): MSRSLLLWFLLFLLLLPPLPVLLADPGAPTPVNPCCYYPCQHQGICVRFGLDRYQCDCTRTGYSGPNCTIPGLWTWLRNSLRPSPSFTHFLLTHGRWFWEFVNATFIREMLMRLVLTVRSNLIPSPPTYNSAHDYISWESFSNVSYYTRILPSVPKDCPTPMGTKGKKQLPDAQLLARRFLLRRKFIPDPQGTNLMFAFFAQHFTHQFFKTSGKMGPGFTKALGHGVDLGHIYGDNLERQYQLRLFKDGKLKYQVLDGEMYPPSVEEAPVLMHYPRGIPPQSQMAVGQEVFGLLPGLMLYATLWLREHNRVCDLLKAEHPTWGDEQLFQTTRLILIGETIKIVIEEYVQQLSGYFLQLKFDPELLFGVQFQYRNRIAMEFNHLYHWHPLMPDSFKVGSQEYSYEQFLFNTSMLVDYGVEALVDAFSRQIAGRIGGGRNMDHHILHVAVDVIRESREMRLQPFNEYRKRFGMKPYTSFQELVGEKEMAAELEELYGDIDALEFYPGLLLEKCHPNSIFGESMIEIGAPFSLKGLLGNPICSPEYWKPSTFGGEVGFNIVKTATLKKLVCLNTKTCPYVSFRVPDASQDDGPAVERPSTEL

Consider `COc1cccc(C(=O)CCN[C@@H](C)[C@H](O)c2ccccc2)c1` [OXYFEDRINE], for which the AC50 (on Progesterone receptor; in assay [1]; in assay [2]) was over 30 µM throughout.
On to `Cc1cccc(C)c1NC(=O)CC12CCCN1CCC2` [PILSICAINIDE], for which the AC50 in assay [3], in assay [4], in assay [5], in assay [6] and in assay [7] was over 30 µM each time.
For the molecule `C[C@@H]1C[C@H]2[C@@H]3C[C@H](F)C4=CC(=O)C=C[C@]4(C)[C@H]3[C@@H](O)C[C@]2(C)[C@@]1(O)C(=O)CO` [PARAMETHASONE], the values for the AC50 (on Progesterone receptor; in assay [1]; in assay [2]) were 5.1 µM, over 30 µM and over 30 µM, respectively.
Regarding `CC(OCCN1CCCCCC1)(c1ccccc1)c1ccc(Cl)cc1` (stereo unspecified) [SETASTINE], the values for the AC50 (on Progesterone receptor; in assay [1]; in assay [2]) were over 30 µM, 28.1 µM and over 30 µM, respectively.
Consider `CC(C)c1cccc(C(C)C)c1O` [PROPOFOL], for which the AC50 in assay [3] was over 30 µM; in assay [5], over 30 µM; in assay [6], over 30 µM; in assay [7], over 3 µM.
Regarding `CCOC(=O)c1c(CSc2ccccc2)n(C)c2cc(Br)c(O)c(CN(C)C)c12` [UMIFENOVIR], the AC50 was over 30 µM in assay [4], over 30 µM in assay [5], 5.6 µM in assay [6] and 19 µM in assay [7].
As for `COC(=O)C1=C(C)NC(C)=C(C(=O)OCCN2CCN(C(c3ccccc3)c3ccccc3)CC2)C1c1cccc([N+](=O)[O-])c1` (stereo unspecified) [MANIDIPINE 6300], the AC50 is over 30 µM in assay [3]; over 30 µM in assay [4]; over 30 µM in assay [5]; over 30 µM in assay [6]; 7.4 µM in assay [7].
Consider `C[C@H](CCC(=O)O)[C@H]1CC[C@H]2[C@@H]3[C@H](O)C[C@@H]4C[C@H](O)CC[C@]4(C)[C@H]3C[C@H](O)[C@]12C` [CHOLIC ACID], for which the AC50 (at Progesterone receptor; in assay [1]) was over 30 µM each time.
`CCCN1CC(NS(=O)(=O)N(CC)CC)CC2Cc3c(O)cccc3CC21` (stereo unspecified) [QUINAGOLIDE]: the AC50 in assay [4], in assay [5], in assay [6] and in assay [7] was over 30 µM throughout.
As for `CCC1(c2ccc(N)cc2)CCC(=O)NC1=O` (stereo unspecified) [AMINOGLUTETHIMIDE], the AC50 in assay [3] is over 30 µM; in assay [4], over 30 µM; in assay [5], over 30 µM; in assay [6], 9.5 µM; in assay [7] it was over 30 µM.
On to `CC(=O)[C@H]1CC[C@H]2[C@@H]3C=CC4=CC(=O)CC[C@@]4(C)[C@@H]3CC[C@]12C` [DYDROGESTERONE], for which the AC50 in assay [1] and in assay [2] was over 30 µM in each case.
Regarding `OC[C@H]1O[C@@H](n2cnc3c2NC=NC[C@H]3O)C[C@@H]1O` [PENTOSTATIN], the AC50 in assay [4] is over 30 µM; in assay [5] it was over 30 µM; in assay [6] it was over 30 µM; in assay [7] it was 6.6 µM.
In the case of `COc1ccc2c(C(=S)N(C)CC(=O)O)cccc2c1C(F)(F)F` [TOLRESTAT], the AC50 (at Progesterone receptor; in assay [2]) was over 30 µM in each case.
As to `O=S1(=O)CCN(CN2CCS(=O)(=O)NC2)CN1` [TAUROLIDINE], the AC50 (at Progesterone receptor; in assay [3]; in assay [2]; in assay [4]; in assay [6]; in assay [7]) was over 30 µM throughout.
For `C[N+](C)(C)CCOP(=O)([O-])OC[C@H](O)CO`, the half-maximal activity concentration (AC50) in assay [3], in assay [4], in assay [5], in assay [6] and in assay [7] was over 30 µM each time.
For the molecule `CC1=C(C(=O)OC(C)C)C(c2cccc([N+](=O)[O-])c2)C(C(=O)OC2CN(C(c3ccccc3)c3ccccc3)C2)=C(N)N1` (stereo unspecified) [AZELNIDIPINE], the AC50 in assay [3] was 26 µM; in assay [4], over 30 µM; in assay [5] it was 12 µM; in assay [6], 6.6 µM; in assay [7] it was 16 µM.
In the same order, the values of `CN[C@]1(c2ccccc2Cl)CCCCC1=O` [ESKETAMINE] are over 30 µM, over 30 µM, over 30 µM, over 30 µM and over 30 µM.
Regarding `C=C1CC[C@H](O)C/C1=C/C=C1\CCC[C@]2(C)[C@@H]([C@H](C)CCCC(C)C)CC[C@@H]12` [CHOLECALCIFEROL], the AC50 was over 30 µM in assay [1] and 12.3 µM in assay [2].
In the same order, the values of `CC(O)(P(=O)(O)O)P(=O)(O)O` [ETIDRONIC ACID] are over 30 µM and over 30 µM.
Regarding `NC[C@H]1CC[C@H](C(=O)Oc2ccc(CCC(=O)O)cc2)CC1` [CETRAXATE], the AC50 (on Progesterone receptor; in assay [3]; in assay [2]; in assay [4]; in assay [6]) was over 30 µM throughout.
Take `O=C1OC(OC(=O)c2cccnc2Nc2cccc(C(F)(F)F)c2)c2ccccc21` (stereo unspecified) [TALNIFLUMATE]: the AC50 in assay [4] was over 30 µM; in assay [5], over 30 µM; in assay [6] it was 5.2 µM; in assay [7], over 30 µM.
`CCOC(=O)C1=C(C)NC(C)=C(C(=O)OCC)C1c1ccccc1/C=C/C(=O)OC(C)(C)C` [LACIDIPINE]: the AC50 in assay [3] is over 30 µM; in assay [4] it was over 30 µM; in assay [5], over 30 µM; in assay [6], 12 µM; in assay [7], over 30 µM.
In the case of `CN(C)C/C=C/C(=O)Nc1cc2c(Nc3ccc(F)c(Cl)c3)ncnc2cc1O[C@H]1CCOC1` [AFATINIB], the AC50 in assay [3], in assay [4], in assay [5], in assay [6] and in assay [7] was over 30 µM throughout.
For the molecule `CC(Cc1cccc(C(F)(F)F)c1)NCCOC(=O)c1ccccc1` (stereo unspecified) [BENFLUOREX], the AC50 in assay [3] is 14 µM; in assay [5], over 30 µM.
For `CNCCc1ccc(OC(=O)C(C)C)c(OC(=O)C(C)C)c1` [IBOPAMINE], the AC50 in assay [4], in assay [5], in assay [6] and in assay [7] was over 30 µM in each case.
